Patent US10642156B2, “Resist base material, resist composition and method for forming resist pattern” (Mitsubishi Gas Chemical Company, Inc., priority 2015, dated 2020)

Experiments:
[1] = Test on safe solvent solubility of compound; format: physicochemical; details: 23° C., ultrasound 30 minutes, visually observed; for Safety solvent solubility test CHN: cyclohexanone (CHN); for Safety solvent solubility test PGME: propylene glycol monomethyl ether (PGME); for Safety solvent solubility test PGMEA: propylene glycol monomethyl ether acetate (PGMEA)
Method: (1) Test on Safe Solvent Solubility of Compound
The solubility of the compound in cyclohexanone (CHN), propylene glycol monomethyl ether (PGME), and propylene glycol monomethyl ether acetate (PGMEA) was evaluated according to the following standard using the dissolution amount in each solvent. For the measurement of the dissolution amount, the compound was precisely weighed into a test tube at 23° C., and the target solvent was added thereto at a predetermined concentration. Ultrasound was applied for 30 minutes in an ultrasonic cleaning machine. Then, the state of the liquid was visually observed.
Evaluation A: 20% by mass≤dissolution amount
Evaluation B: 10% by mass≤dissolution amount<20.0% by mass
Evaluation C: Dissolution amount<10% by mass

[2] = 10% thermal reduction temperature by thermogravimetry (TG); format: physicochemical; details: nitrogen gas stream, 10° C./min to 500° C.
Method: (3) Thermal Reduction Temperature
“EXSTAR 6000 DSC” apparatus manufactured by SII NanoTechnology Inc. was used. About 5 mg of a sample was placed in an unsealed container made of aluminum, and the temperature was raised to 500° C. at a temperature increase rate of 10° C./min in a nitrogen gas (30 mL/min) stream. In this operation, 10% thermal reduction temperature was measured.

10% thermal reduction temperature [2] [°C]	SMILES	Safety solvent solubility test CHN [1]	Safety solvent solubility test PGME [1]	Safety solvent solubility test PGMEA [1]
≥ 300	Oc1ccc(C2=CC(C(c3ccc(I)cc3)c3cc(-c4ccc(O)cc4)ccc3O)C(O)C=C2)cc1 (stereo not drawn) [BiF-I-1]	A (Evaluation A: 20% by mass≤dissolution amount)	A (Evaluation A: 20% by mass≤dissolution amount)	A (Evaluation A: 20% by mass≤dissolution amount)
≥ 300	COc1cc(I)cc(C(c2cc(C3C=CC(O)=CC3)ccc2O)C2C=C(C3=CCC(O)C=C3)C=CC2O)c1 (stereo not drawn) [BiF-I-2]	A (Evaluation A: 20% by mass≤dissolution amount)	A (Evaluation A: 20% by mass≤dissolution amount)	A (Evaluation A: 20% by mass≤dissolution amount)
≥ 300	Oc1ccc(-c2ccc(O)c(C(c3cccc(I)c3)c3cc(-c4ccc(O)cc4)ccc3O)c2)cc1 [BiF-I-3]	A (Evaluation A: 20% by mass≤dissolution amount)	A (Evaluation A: 20% by mass≤dissolution amount)	A (Evaluation A: 20% by mass≤dissolution amount)
